In ChEMBL document CHEMBL5029165, “Derivatives of montanine-type alkaloids and their implication for the treatment of Alzheimer's disease: Synthesis, biological activity and in silico study” (Bioorg Med Chem Lett, 2021) one finds Selectivity Index, IC50 and inhibition data, which are given here for 36 compounds.

Usually IC50 stands for the concentration that inhibits the measured activity by half. A high value points to a need for much substance. What is called inhibition is the share of the control response that was lost under treatment. Read a low inhibition as a response near the control.

Assay [1] in a line: Selectivity index, ratio of IC50 for human BuChe to IC50 for human AChE.
In assay [2] the target is T1, Cholinesterase (Homo sapiens, UniProt P06276). Kind of assay: Inhibition of human BuChE using butyrylthiocholine chloride as substrate by Ellman's method. Background: DTNB colorimetry detects thiols as they appear.
T1 sequence (P06276 whole entry): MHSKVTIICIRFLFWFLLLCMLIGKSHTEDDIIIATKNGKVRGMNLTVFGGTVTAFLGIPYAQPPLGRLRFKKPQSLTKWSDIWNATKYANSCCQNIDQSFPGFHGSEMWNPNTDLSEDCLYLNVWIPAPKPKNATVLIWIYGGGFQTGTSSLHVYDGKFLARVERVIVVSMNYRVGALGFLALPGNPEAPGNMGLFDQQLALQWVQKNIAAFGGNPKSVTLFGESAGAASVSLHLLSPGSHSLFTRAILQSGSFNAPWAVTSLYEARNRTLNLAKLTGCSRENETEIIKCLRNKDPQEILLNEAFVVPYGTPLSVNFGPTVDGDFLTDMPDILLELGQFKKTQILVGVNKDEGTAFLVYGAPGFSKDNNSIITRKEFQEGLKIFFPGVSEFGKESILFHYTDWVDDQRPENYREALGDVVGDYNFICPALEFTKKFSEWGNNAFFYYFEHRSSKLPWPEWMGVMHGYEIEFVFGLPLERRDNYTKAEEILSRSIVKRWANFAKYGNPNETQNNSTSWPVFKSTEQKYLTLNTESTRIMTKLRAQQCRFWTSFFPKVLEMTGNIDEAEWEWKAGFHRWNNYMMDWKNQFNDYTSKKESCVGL
Assay [3] can be described thus: Selectivity index, ratio of IC50 for human AChE to IC50 for human BuChe.
In assay [4] the target is T2, Acetylcholinesterase (Homo sapiens, UniProt P22303). Kind of assay: Inhibition of human AChE using acetylthiocholine as substrate by Ellman's method.
T2 sequence (P22303 whole entry): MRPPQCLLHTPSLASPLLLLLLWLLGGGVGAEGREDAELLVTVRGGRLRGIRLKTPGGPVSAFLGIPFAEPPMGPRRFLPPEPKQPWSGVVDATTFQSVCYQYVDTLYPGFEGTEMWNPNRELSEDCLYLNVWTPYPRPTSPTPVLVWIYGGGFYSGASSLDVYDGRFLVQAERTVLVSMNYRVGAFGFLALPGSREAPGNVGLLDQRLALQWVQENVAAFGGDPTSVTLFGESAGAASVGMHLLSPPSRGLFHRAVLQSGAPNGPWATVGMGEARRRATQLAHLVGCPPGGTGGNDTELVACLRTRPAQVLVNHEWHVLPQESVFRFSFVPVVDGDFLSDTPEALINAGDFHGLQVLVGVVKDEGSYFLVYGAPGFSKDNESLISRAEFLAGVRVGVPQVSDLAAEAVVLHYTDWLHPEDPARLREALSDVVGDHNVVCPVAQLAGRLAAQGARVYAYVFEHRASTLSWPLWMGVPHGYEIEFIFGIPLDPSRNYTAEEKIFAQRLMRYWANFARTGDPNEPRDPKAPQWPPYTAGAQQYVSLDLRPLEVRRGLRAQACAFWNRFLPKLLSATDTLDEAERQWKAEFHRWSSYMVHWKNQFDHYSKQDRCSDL
Assay [5] deals with T1, Cholinesterase. Kind of assay: Inhibition of human BuChE at 100 uM using butyrylthiocholine chloride as substrate by Ellman's method.
Assay [6] has as its target T2, Acetylcholinesterase. The assay can be described thus: Inhibition of human AChE at 100 uM using acetylthiocholine as substrate by Ellman's method.

In the case of `CO[C@H]1C[C@H]2C(=C[C@@H]1OC(=O)c1cc([N+](=O)[O-])ccc1Cl)[C@H]1CN2Cc2cc3c(cc21)OCO3`, the Selectivity Index in assay [1] was more than 31.4; in assay [3] it was less than 0.03. For the same compound, the IC50 at Cholinesterase [2] is more than 100 µM; on Acetylcholinesterase [4], 3.18 µM. In addition, the inhibition against Cholinesterase [5] amounted to 30%; at Acetylcholinesterase [6], 78.7%.

`Cc1ccccc1C(=O)O[C@@H]1C=C[C@]23CCN(Cc4cc5c(cc42)OCO5)[C@H]3C1`: the IC50 on Cholinesterase [2] was 8 µM; against Acetylcholinesterase [4] it was more than 100 µM.

As to `CO[C@H]1C[C@H]2C(=C[C@@H]1OC(=O)c1cccc([N+](=O)[O-])c1)[C@H]1CN2Cc2cc3c(cc21)OCO3`, the IC50 against Cholinesterase [2] and against Acetylcholinesterase [4] was more than 100 µM in each case. In addition, the inhibition against Cholinesterase [5] stood at 18.1%; at Acetylcholinesterase [6], 55.3%.

As for `CO[C@H]1C[C@H]2C(=C[C@@H]1OC(=O)c1cc(Br)cc([N+](=O)[O-])c1)[C@H]1CN2Cc2cc3c(cc21)OCO3`, the IC50 against Cholinesterase [2] and against Acetylcholinesterase [4] was more than 100 µM each time. In addition, the results for the inhibition at Cholinesterase [5] and against Acetylcholinesterase [6] were 31.7% and 28%, respectively.

For `CO[C@H]1C[C@H]2C(=C[C@@H]1OC(=O)c1ccccc1)[C@H]1CN2Cc2cc3c(cc21)OCO3`, the IC50 against Cholinesterase [2] and against Acetylcholinesterase [4] was more than 100 µM in each case. The inhibition at Cholinesterase [5] was found to be 20.1%; against Acetylcholinesterase [6] it was 8.5%.

`CO[C@H]1C=C2[C@H]3CN(Cc4cc5c(cc43)OCO5)[C@H]2C[C@@H]1O`: the figures for the inhibition at Cholinesterase [5] and on Acetylcholinesterase [6] were 8.4% and 13.7%, respectively.

As to `CO[C@H]1C[C@H]2C(=C[C@@H]1OC(=O)c1ccc([N+](=O)[O-])cc1)[C@H]1CN2Cc2cc3c(cc21)OCO3`, the IC50 against Cholinesterase [2] and on Acetylcholinesterase [4] was more than 100 µM throughout. The inhibition at Cholinesterase [5] was determined as 26.2%; on Acetylcholinesterase [6] it was 48.1%.

As to `CO[C@H]1C=C2[C@H]3CN(Cc4cc5c(cc43)OCO5)[C@H]2C[C@@H]1OC(=O)c1cc([N+](=O)[O-])ccc1Cl`, the IC50 on Cholinesterase [2] and against Acetylcholinesterase [4] was more than 100 µM in each case. Moreover, the inhibition at Cholinesterase [5] came to 40.1%; against Acetylcholinesterase [6], 1.8%.

For `CO[C@H]1C[C@H]2C(=C[C@@H]1OC(=O)c1ccccc1[N+](=O)[O-])[C@H]1CN2Cc2cc3c(cc21)OCO3`, the IC50 against Cholinesterase [2] and on Acetylcholinesterase [4] was more than 100 µM in each case. Further, the inhibition on Cholinesterase [5] is 45.4%; against Acetylcholinesterase [6] it was 34.1%.

As for `COc1ccccc1C(=O)O[C@H]1C=C2[C@H]3CN(Cc4cc5c(cc43)OCO5)[C@H]2C[C@@H]1OC`, the IC50 at Cholinesterase [2] and against Acetylcholinesterase [4] was more than 100 µM throughout. Besides, the values for the inhibition against Cholinesterase [5] and against Acetylcholinesterase [6] were 30.1% and 15.6%, respectively.

For the compound `CO[C@H]1C[C@H]2C(=C[C@@H]1OC(=O)C1CCCCC1)[C@H]1CN2Cc2cc3c(cc21)OCO3`, the Selectivity Index is less than 0.02 in assay [1] and more than 57.8 in assay [3]. In addition, the half-inhibitory concentration (IC50) on Cholinesterase [2] and against Acetylcholinesterase [4] was more than 100 µM in each case. The inhibition on Cholinesterase [5] came to 20.8%; against Acetylcholinesterase [6] it was 1.2%.

As to `CO[C@H]1C[C@H]2C(=C[C@@H]1OC(=O)N1CCCCC1)[C@H]1CN2Cc2cc3c(cc21)OCO3`, the half-maximal inhibitory concentration (IC50) against Cholinesterase [2] is 1.73 µM; against Acetylcholinesterase [4] it was more than 100 µM. The inhibition at Cholinesterase [5] came to 97%; against Acetylcholinesterase [6], 8.8%.

As to `COc1c2c(cc3c1OCO3)[C@]13C=C[C@H](OC)C[C@H]1N(C2)C[C@H]3OC(=O)c1cccc2ccccc12`, the IC50 against Cholinesterase [2] was 0.1 µM; at Acetylcholinesterase [4], more than 100 µM.

For `CO[C@H]1C=C2[C@H]3CN(Cc4cc5c(cc43)OCO5)[C@H]2C[C@@H]1OC(=O)c1ccc([N+](=O)[O-])cc1Cl`, the Selectivity Index in assay [1] is less than 0.17; in assay [3], more than 5.9. Also, the results for the IC50 against Cholinesterase [2] and at Acetylcholinesterase [4] were 17 µM and more than 100 µM, respectively. Further, the inhibition was 69.8% at Cholinesterase [5] and 2.3% against Acetylcholinesterase [6].

For `CO[C@H]1C[C@H]2C(=C[C@@H]1OC(=O)c1ccc(C)cc1)[C@H]1CN2Cc2cc3c(cc21)OCO3`, the IC50 at Cholinesterase [2] and against Acetylcholinesterase [4] was more than 100 µM throughout. The results for the inhibition at Cholinesterase [5] and against Acetylcholinesterase [6] were 12.9% and 12.4%, respectively.

For the compound `CO[C@H]1C[C@H]2C(=C[C@@H]1OCCN1CCCCC1)[C@H]1CN2Cc2cc3c(cc21)OCO3`, the IC50 against Cholinesterase [2] and at Acetylcholinesterase [4] was more than 100 µM each time. Further, the inhibition against Cholinesterase [5] amounted to 45.2%; against Acetylcholinesterase [6], 6.5%.

Regarding `CO[C@H]1C[C@H]2C(=C[C@@H]1OC(=O)c1cc([N+](=O)[O-])cc([N+](=O)[O-])c1)[C@H]1CN2Cc2cc3c(cc21)OCO3`, the values for the Selectivity Index in assay [1] and in assay [3] were more than 7.66 and less than 0.13, respectively. Moreover, the IC50 was more than 100 µM on Cholinesterase [2] and 13.1 µM against Acetylcholinesterase [4]. Besides, the inhibition against Cholinesterase [5] amounted to 19.2%; on Acetylcholinesterase [6], 70.8%.

Regarding `O=C(O[C@@H]1C=C[C@]23CCN(Cc4cc5c(cc42)OCO5)[C@H]3C1)c1ccccc1[N+](=O)[O-]`, the IC50 against Cholinesterase [2] is 1.4 µM; on Acetylcholinesterase [4], 60 µM.

On to `CO[C@H]1C=C2[C@H]3C[N@@](Cc4cc5c(cc43)OCO5)[C@H]2C[C@@H]1O` [MONTANINE], for which the half-inhibitory concentration (IC50) at Cholinesterase [2] and at Acetylcholinesterase [4] was more than 100 µM in each case.

`COc1cccc(C(=O)O[C@H]2C=C3[C@H]4CN(Cc5cc6c(cc54)OCO6)[C@H]3C[C@@H]2OC)c1`: the IC50 against Cholinesterase [2] and on Acetylcholinesterase [4] was more than 100 µM in each case. Besides, the results for the inhibition against Cholinesterase [5] and at Acetylcholinesterase [6] were 20.3% and 19.3%, respectively.

Consider `CO[C@H]1C[C@H]2C(=C[C@@H]1OC(=O)c1ccc(Cl)c([N+](=O)[O-])c1)[C@H]1CN2Cc2cc3c(cc21)OCO3`, for which the Selectivity Index in assay [1] was more than 62.1; in assay [3], less than 0.02. Also, the half-inhibitory concentration (IC50) against Cholinesterase [2] was more than 100 µM; at Acetylcholinesterase [4], 1.61 µM. Besides, the inhibition at Cholinesterase [5] was 26.5%; on Acetylcholinesterase [6], 83.7%.

`COc1ccc(C(=O)O[C@H]2C=C3[C@H]4CN(Cc5cc6c(cc54)OCO6)[C@H]3C[C@@H]2OC)cc1`: the IC50 against Cholinesterase [2] and on Acetylcholinesterase [4] was more than 100 µM each time. The inhibition on Cholinesterase [5] was 15.5%; on Acetylcholinesterase [6], 12.5%.

As for `CO[C@H]1C[C@H]2C(=C[C@@H]1OC(=O)c1ccccc1C)[C@H]1CN2Cc2cc3c(cc21)OCO3`, the IC50 at Cholinesterase [2] and on Acetylcholinesterase [4] was more than 100 µM throughout. For the same compound, the inhibition at Cholinesterase [5] stood at 30.2%; against Acetylcholinesterase [6] it was 29.7%.

Turning to `CO[C@H]1C[C@H]2C(=C[C@@H]1OC(=O)c1cccc(C)c1)[C@H]1CN2Cc2cc3c(cc21)OCO3`, the IC50 at Cholinesterase [2] and at Acetylcholinesterase [4] was more than 100 µM each time. Further, the inhibition at Cholinesterase [5] is 12.9%; against Acetylcholinesterase [6], 18.2%.

Turning to `CO[C@H]1C[C@H]2C(=C[C@@H]1OC(=O)c1ccc(C)c([N+](=O)[O-])c1)[C@H]1CN2Cc2cc3c(cc21)OCO3`, the Selectivity Index was more than 23.1 in assay [1] and less than 0.04 in assay [3]. Also, the values for the IC50 against Cholinesterase [2] and against Acetylcholinesterase [4] were more than 100 µM and 4.32 µM, respectively. Also, the results for the inhibition at Cholinesterase [5] and against Acetylcholinesterase [6] were 6.8% and 81.5%, respectively.

For `CO[C@H]1C[C@H]2C(=C[C@@H]1OC(=O)c1cccs1)[C@H]1CN2Cc2cc3c(cc21)OCO3`, the IC50 against Cholinesterase [2] and on Acetylcholinesterase [4] was more than 100 µM each time. The inhibition amounted to 49.7% against Cholinesterase [5] and 29.4% on Acetylcholinesterase [6].

As for `CO[C@H]1C=C2[C@H]3CN(Cc4cc5c(cc43)OCO5)[C@H]2C[C@@H]1OC(=O)c1ccc(Cl)c([N+](=O)[O-])c1`, the IC50 at Cholinesterase [2] and against Acetylcholinesterase [4] was more than 100 µM in each case. Also, the inhibition on Cholinesterase [5] turned out to be 13.8%; at Acetylcholinesterase [6] it was 4.8%.

`CO[C@H]1C=C2[C@H]3CN(Cc4cc5c(cc43)OCO5)[C@H]2C[C@@H]1OC(=O)c1ccc(C)c([N+](=O)[O-])c1`: the IC50 against Cholinesterase [2] and on Acetylcholinesterase [4] was more than 100 µM throughout. Moreover, the inhibition turned out to be 20.4% against Cholinesterase [5] and 30.3% against Acetylcholinesterase [6].

As to `COc1ccc(C(=O)O[C@H]2C=C3[C@H]4CN(Cc5cc6c(cc54)OCO6)[C@H]3C[C@@H]2OC)cc1OC`, the IC50 on Cholinesterase [2] and against Acetylcholinesterase [4] was more than 100 µM in each case. In addition, the inhibition was found to be 18.1% against Cholinesterase [5] and 17.2% against Acetylcholinesterase [6].

Take `CO[C@H]1C[C@H]2C(=C[C@@H]1OC(=O)c1ccco1)[C@H]1CN2Cc2cc3c(cc21)OCO3`: the IC50 on Cholinesterase [2] and on Acetylcholinesterase [4] was more than 100 µM in each case. Besides, the inhibition on Cholinesterase [5] was determined as 26.9%; against Acetylcholinesterase [6], 15.1%.

On to `CO[C@H]1C[C@H]2C(=C[C@@H]1O)[C@H]1CN2Cc2cc3c(cc21)OCO3`, for which the IC50 against Cholinesterase [2] and at Acetylcholinesterase [4] was more than 100 µM in each case. Besides, the inhibition against Cholinesterase [5] and against Acetylcholinesterase [6] was 9.2% throughout.

On to `CO[C@H]1C[C@H]2C(=C[C@@H]1OC(=O)c1ccc([N+](=O)[O-])cc1Cl)[C@H]1CN2Cc2cc3c(cc21)OCO3`, for which the IC50 against Cholinesterase [2] and against Acetylcholinesterase [4] was more than 100 µM throughout. In addition, the inhibition against Cholinesterase [5] was determined as 27.1%; at Acetylcholinesterase [6], 48.6%.

As to `CO[C@H]1C[C@H]2C(=C[C@@H]1OC(=O)c1ccoc1)[C@H]1CN2Cc2cc3c(cc21)OCO3`, the half-inhibitory concentration (IC50) against Cholinesterase [2] and against Acetylcholinesterase [4] was more than 100 µM throughout. Besides, the inhibition on Cholinesterase [5] was 30.2%; against Acetylcholinesterase [6] it was 6.8%.

For `O=C(O[C@H]1CN2Cc3cc4c(cc3[C@]13C=C[C@@H](O)C[C@H]23)OCO4)c1cccc([N+](=O)[O-])c1`, the IC50 at Cholinesterase [2] was more than 100 µM; against Acetylcholinesterase [4], 4 µM.

For `O=C(O[C@H]1CN2Cc3cc4c(cc3[C@]13C=C[C@@H](O)C[C@H]23)OCO4)c1ccccc1Cl`, the IC50 on Cholinesterase [2] was 5.6 µM; against Acetylcholinesterase [4], 13 µM.

Regarding `COc1ccccc1C(=O)O[C@H]1CN2Cc3cc4c(cc3[C@]13C=C[C@@H](O)C[C@H]23)OCO4`, the IC50 on Cholinesterase [2] came to 3.3 µM; against Acetylcholinesterase [4], 90 µM.
